Earlier results, collected in patent US20230372216A1, “METHOD FOR DYEING KERATINOUS MATERIAL, COMPRISING THE USE OF AN ORGANOSILICON COMPOUND, A DYEING COMPOUND, A SEALING REAGENT AND A PRE-TREATMENT AGENT” (Henkel AG & Co. KGaA, priority 2020, published 2023).

details: 25° C.

With `CCN(Cc1cccc(S(=O)(=O)[O-])c1)c1ccc(C(=C2C=CC(=[N+](CC)Cc3cccc(S(=O)(=O)[O-])c3)C=C2)c2ccccc2S(=O)(=O)[O-])cc1.[Na+].[Na+]` [Acid Blue 9] as the compound, how does the solubility in water read?
Its solubility in water is “more than 20 wt. %”.

For “sodium salts of mono- and disulfonic acids of 2-(2-quinolyl)-1H-indene-1,3(2H)-dione [Acid Yellow 3]”, which solubility in water is on record?
Its solubility in water is 20 mg/mL.

Which “solubility in water (in words)” value does the source give for `O=C([O-])C1=NN(c2ccc(S(=O)(=O)[O-])cc2)C(=O)C1N=Nc1ccc(S(=O)(=O)[O-])cc1.[Na+].[Na+].[Na+]` (stereo not drawn) [Acid Yellow 23, trisodium salt of 4,5-dihydro-5-oxo-1-(4-sulfophenyl)-4-((4-sulfophenyl)azo)-1H-pyrazole-3-carboxylic acid] here?
The value was “highly soluble in water”.

Which solubility in water does the source give for `O=C([O-])c1c(Cl)c(Cl)c(Cl)c(Cl)c1-c1c2c(Br)cc(=O)c(Br)c-2oc2c(Br)c(O)cc(Br)c12.O=C([O-])c1c(Cl)c(Cl)c(Cl)c(Cl)c1-c1c2c(Br)cc(=O)c(Br)c-2oc2c(Br)c(O)cc(Br)c12.[Na+].[Na+]` [Acid Red 92, disodium salt of 3,4,5,6-tetrachloro-2-(1,4,5,8-tetrabromo-6-hydroxy-3-oxoxanthen-9-yl)benzoic acid] here?
Its solubility in water is “greater than 10 g/L”.

For `Nc1cc(S(=O)(=O)[O-])cc2cc(S(=O)(=O)[O-])c(N=Nc3ccccc3)c(O)c12.[Na+].[Na+]` [Acid Red 33, disodium salt of 5-amino-4-hydroxy-3-(phenylazo)-naphthalene-2,7-disulphonate], which solubility in water is on record?
Its solubility in water is 2.5 mg/mL.

For `O=S(=O)([O-])c1ccc(N=Nc2c(O)ccc3ccccc23)cc1.[Na+]` [Acid Orange 7, sodium salt of 4-[(2-hydroxy-1-naphthyl)azo]benzene sulphonate], which solubility in water is on record?
Its solubility in water is “more than 7 g/L”.
